Our source for the IC50 values is patent publication US10688093B2, “Methods, compositions, and uses of novel Fyn kinase inhibitors” (priority 2015, dated 2020).

SMILES strings stand for the structures.

Chain of full-length recombinant human FYN A (P06241 whole entry): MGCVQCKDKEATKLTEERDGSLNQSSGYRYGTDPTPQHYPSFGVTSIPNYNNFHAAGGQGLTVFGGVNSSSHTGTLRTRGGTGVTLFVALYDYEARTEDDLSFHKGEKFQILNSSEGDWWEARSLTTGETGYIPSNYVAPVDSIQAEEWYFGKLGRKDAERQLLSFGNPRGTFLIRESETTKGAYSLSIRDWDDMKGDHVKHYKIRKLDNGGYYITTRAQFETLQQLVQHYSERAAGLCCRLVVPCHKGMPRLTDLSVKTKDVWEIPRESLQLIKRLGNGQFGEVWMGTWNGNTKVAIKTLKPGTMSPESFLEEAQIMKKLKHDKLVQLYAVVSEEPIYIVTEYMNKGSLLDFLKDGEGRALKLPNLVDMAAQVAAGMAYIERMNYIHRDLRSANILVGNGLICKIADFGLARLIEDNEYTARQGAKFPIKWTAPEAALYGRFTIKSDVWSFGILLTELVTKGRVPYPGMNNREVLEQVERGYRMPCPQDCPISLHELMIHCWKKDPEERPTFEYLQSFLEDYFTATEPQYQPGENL

The test deals with full-length recombinant human FYN A (Homo sapiens (Human), UniProt P06241). In words: ADP-Glo Kinase Assay of FYN kinase inhibition. The format is biochemical. The settings on record: primary screen, initial compounds. From the text:
The chemical library was comprised of the SoftFocus ATP-competitive hinge binding compounds described by Harris, C. J., Hill, R. D., Sheppard, D. W., et al., The Design and Application of Target-Focused Compound Libraries. Combinatorial Chemistry and High Throughput Screening 14:521-31 (2011). The specific pharmacore chemistries included SFK52 comprising 6-[R2]-3-[R1]imidazo[1,2-b] pyridazine compounds, SFK33 comprising N-(3-[R2] imidazo [1,2-b] pyridazin-6-yl) [R1] amine compounds, SFK49 comprising N-(5-[R2] imidazo [2,1-b][1,3,4] thiadiazol-2-yl)[R1]-amine compounds, SFK 40 comprising 5-[R2]-3-[R1] pyridin-2-amine compounds, SFK43 comprising 6-[R2]-3-[R1]imidazo[1,2-a]pyrazine compounds, and SFK63. The chemical structures of the initial 600 potential kinase inhibitors are presented in Table 3, with those chosen for additional analysis presented in Table 4. Comparison of the compounds presented in Table 1 and those of Tables 2, 3 and 4, illustrate the novelty of the chemical structures claimed herein.
FYN kinase (10 micrograms) was from the FYN A Kinase Enzyme System (V3571, Promega UK Ltd.), a full-length recombinant human FYN A containing an N-terminal GST tag of about 85 kDa, expressed by bacullovirus in […] insect cells, supplied at a concentration of 0.1 microgram/microliter in 5×reaction buffer. The FYN substrate, a 12 amino acid peptide of the sequence […], containing a single tyrosine phosphorylation site, was custom synthesized (Peptide Synthetics, Peptide Protein Research, Fareham, UK) and supplied as a 4 mg/ml aqueous solution. All other reagents were obtained from Sigma (Sigma-Aldrich, Gillingham, Dorset, UK), with the exception of UltraPure ATP (V9102, Promega UK Ltd.) and the ATP-competitive broad spectrum protein kinase inhibitor staurosporine (569397, Merck Millipore, Watford, Hertfordshire, UK), or as otherwise indicated.
The assay procedure determines the IC50 of each potential FYN kinase inhibitor by measuring the enzyme catalyzed ATP-dependent phosphorylation of the FYN substrate peptide. The ADP-Glo™ Kinase Assay is specifically designed to quantify kinase activity by measuring the ADP produced in the reaction The reaction buffer comprises 40 mM Tris.HCl (pH 7.5), 20 mM MgCl2, 0.1 mg/ml BSA and 5 microM DTT. Individual compounds within the chemical library were dissolved in DMSO at known concentrations. Briefly, 2.5 microliters of reaction buffer containing 3 picograms of FYN kinase and serial dilutions of each potential FYN kinase inhibitor (9 3-fold dilutions of a 10 micromolar top sample) are placed into each well of a 384 well microtiter plate and incubated at room temperature for 30 minutes. An additional 2.5 microliters of reaction buffer containing 100 picograms of the FYN substrate and 12.5 picomoles of ATP are then added to each well and the reaction carried out for 90 minutes at room temperature. The reactions are terminated by addition of 5 microliters of the ADP-Glo™ Reagent component of the ADP-Glo™ Kinase Assay kit to each well. The ADP-Glo™ Reagent comprises an ATP-dependent adenylate cyclase, an inorganic pyrophosphatase and an excess of staurosporine. The adenylate cyclase converts the remaining ATP to cAMP and pyrophospahte, the pyrophosphatase converts the pyrophosphate to phosphate and the staurosporine inhibits the activity of the FYN kinase, the net effect is to remove all residual ATP while preserving the ADP produced by FYN kinase. The terminated reactions are incubated for 40 minutes at room temperature, prior to addition of the Kinase Detection Reagent component of the ADP-Glo™ Kinase Assay kit to each well. The Kinase Detection Reagent comprises pyruvate kinase, phosphoenol pyruvate (PEP), luciferin and luciferase. The pyruvate kinase converts PEP to pyruvate and in the process generates ATP from the residual ADP present in the terminated reaction. […]
Background: ADP-Glo turns the ADP formed in a reaction into a luminescent signal.
As a reminder, the IC50 is the point on the concentration scale where inhibition reaches its midpoint. `CCC(CO)Nc1ccc2ncc(-c3cccc(OC)c3)n2n1` (stereo not drawn) [229_0153_4140, 2-[[3-(3-methoxyphenyl)imidazo[1,2-b]pyridazin-6-yl]amino]butan-1-ol]: the IC50 came to 1550 nM.

`CCC(CO)Nc1ccc2ncc(-c3cccs3)n2n1` (stereo not drawn) [229_0153_4147, 2-[[3-(2-thienyl)imidazo [1,2-b]pyridazin-6-yl]amino] butan-1-ol]: the IC50 is 3970 nM. For the molecule `COc1ccc(-c2cnc3ccc(NCc4cccc(Cl)c4)nn23)cc1` [229_0223_0280, N-[(3-chlorophenyl)methyl]-3-(4-methoxyphenyl) imidazo[1,2-b]pyridazin-6-amine], the IC50 stood at 10700 nM. On to `OCc1cccc(-c2cnc3ccc(NCc4cccc(Cl)c4)nn23)c1` [229_0223_0291, [3-[6-[(3-chlorophenyl)methylamino]imidazo[1,2-b]pyridazin-3-yl]phenyl] methanol], for which the IC50 is 5110 nM. On to `COc1ccc(-c2cnc3ccc(NCc4cccc(Cl)c4)nn23)cn1` [229_0223_0311, N-[(3-chlorophenyl)methyl]-3-(6-methoxy-3-pyridyl)imidazo [1,2-b]pyridazin-6-amine], for which the IC50 is 8340 nM. Turning to `COc1cc(-c2cnc3ccc(NCc4cccc(Cl)c4)nn23)ccc1O` [229_0223_0314, 4-[6-[(3-chlorophenyl)methylamino]imidazo[1,2-b]pyridazin-3-yl]-2-methoxy-phenol], the IC50 is 3520 nM. The figure for `Nc1ccc(-c2cnc3ccc(NCc4cccc(Cl)c4)nn23)cc1` [229_0223_0333, 3-(4-aminophenyl)-N-[(3-chlorophenyl)methyl]imidazo [1,2-b]pyridazin-6-amine] is 3410 nM; for `OCc1ccc(-c2cnc3ccc(NCc4ccc(F)cc4)nn23)cc1` [229_0224_0285, [4-[6-[(4-fluorophenyl)methylamino]imidazo[1,2-b]pyridazin-3-yl]phenyl] methanol] it is 2440 nM; for `CCCNc1ccc2ncc(-c3cccc(N)c3)n2n1` [229_0226_0005, 3-(3-aminophenyl)-N-propyl-imidazo[1,2-b]pyridazin-6-amine] it is 932 nM. The figure for `CCCNc1ccc2ncc(-c3ccc4c(c3)OCO4)n2n1` [229_0226_0068, 3-(1,3-benzodioxol-5-yl)-N-propyl-imidazo[1,2-b]pyridazin-6-amine] is 2050 nM; for `CCCNc1ccc2ncc(-c3ccsc3)n2n1` [229_0226_0074, N-propyl-3-(3-thienyl)imidazo [1,2-b]pyridazin-6-amine] it is 4040 nM; for `CCCNc1ccc2ncc(-c3ccc(OC)c(OC)c3)n2n1` [229_0226_0079, 3-(3,4-dimethoxy-phenyl)-N-propyl-imidazo[1,2-b]pyridazin-6-amine] it is 519 nM. The figure for `CCCNc1ccc2ncc(-c3cccc(NC(C)=O)c3)n2n1` [229_0226_0081, N-[3-[6-(propylamino)imidazo[1,2-b]pyridazin-3-yl]phenyl] acetamide] is 629 nM; for `CCCNc1ccc2ncc(-c3ccc(C(=O)O)cc3)n2n1` [229_0226_0140, 4-[6-(propylamino)imidazo[1,2-b]pyridazin-3-yl]benzoic acid] it is 9770 nM. For `CCCNc1ccc2ncc(-c3ccc(OC)cc3)n2n1` [229_0226_0280, 3-(4-methoxyphenyl)-N-propyl-imidazo[1,2-b]pyridazin-6-amine], the half-inhibitory concentration (IC50) was determined as 5430 nM.

As to `CCCNc1ccc2ncc(-c3cccc(O)c3)n2n1` [229_0226_0284, 3-[6-(propylamino)imidazo[1,2-b]pyridazin-3-yl]phenol], the IC50 stood at 930 nM. For the molecule `CCCNc1ccc2ncc(-c3cccc(OC)c3)n2n1` [229_0226_4140, 3-(3-methoxyphenyl)-N-propyl-imidazo[1,2-b]pyridazin-6-amine], the IC50 amounted to 2220 nM. The figure for `CCCNc1ccc2ncc(-c3cccc(C(C)=O)c3)n2n1` [229_0226_4145, 1-[3-[6-(propylamino)imidazo[1,2-b]pyridazin-3-yl]phenyl] ethanone] is 367 nM.
